The results in this text go back to patent US8148572B2, “Compounds” (AstraZeneca AB, priority 2005, dated 2012).

In the test the target is T1, rhCRTh2 (Homo sapiens, UniProt Q9Y5Y4).
T1 construct: expressed in transfected cells; host or cells: HEK cells (membrane preparation)
T1 sequence (Q9Y5Y4 1-395): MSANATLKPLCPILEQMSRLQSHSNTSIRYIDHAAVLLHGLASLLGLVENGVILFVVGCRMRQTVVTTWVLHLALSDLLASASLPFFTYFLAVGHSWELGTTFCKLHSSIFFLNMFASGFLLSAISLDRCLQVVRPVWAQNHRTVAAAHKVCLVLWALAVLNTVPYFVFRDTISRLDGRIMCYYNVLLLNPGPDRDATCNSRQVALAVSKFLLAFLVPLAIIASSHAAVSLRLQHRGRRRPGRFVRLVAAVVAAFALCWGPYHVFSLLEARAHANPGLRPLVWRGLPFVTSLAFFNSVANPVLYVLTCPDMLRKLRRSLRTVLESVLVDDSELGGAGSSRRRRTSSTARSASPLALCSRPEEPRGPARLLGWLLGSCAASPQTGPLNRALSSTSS
The test can be described thus: Ligand Binding Assay ([3H]PGD2 displacement, SPA beads coated with HEK cell membranes). Particulars: [3H]PGD2 binding to HEK cell membranes containing CRTh2; read-out: pIC50 value (converted). The protocol: [^3H]PGD2 was purchased from Perkin Elmer Life Sciences with a specific activity of 100-210 Ci/mmol. All other chemicals were of analytical grade.
HEK cells expressing rhCRTh2/Gα16 were routinely maintained in DMEM containing 10% Foetal Bovine Serum (HyClone), 1 mg/ml geneticin, 2 mM L-glutamine and 1% non-essential amino acids. For the preparation of membranes, the adherent transfected HEKcells were grown to confluence in two layer tissue culture factories (Fisher, catalogue number TKT-170-070E). Maximal levels of receptor expression were induced by addition of […] sodium butyrate for the last 18 hours of culture. The adherent cells were washed once with phosphate buffered saline (PBS, 50 ml per cell factory) and detached by the addition of 50 ml per cell factory of ice-cold membrane homogenisation buffer [20 mM HEPES (pH 7.4), 0.1 mM dithiothreitol, 1 mM EDTA, 0.1 mM phenyl methyl sulphonyl fluoride and 100 µg/ml bacitracin]. Cells were pelleted by centrifugation at 220×g for 10 minutes at 4° C., re-suspended in half the original volume of fresh membrane homogenisation buffer and disrupted using a Polytron homogeniser for 2×20 second bursts keeping the tube in ice at all times. […] The final pellet was re-suspended in 4 ml of membrane homogenisation buffer per cell factory used and the protein content determined. […]
All assays were performed in Corning clear bottomed, white 96-well NBS plates (Fisher). […] (The optimum coating concentrations were determined for each batch of membranes) The beads were pelleted by centrifugation (800×g for 7 minutes at 4° C.), washed once with assay buffer (50 mM HEPES pH 7.4 containing 5 mM magnesium chloride) and finally re-suspended in assay buffer at a bead concentration of 10 mg/ml. […]
Compounds and DK-PGD2 were dissolved in DMSO and diluted in the same solvent to 100× the required final concentration. […] The assay plate was incubated at room temperature for 2 hours and counted on a Wallac Microbeta liquid scintillation counter (1 minute per well).
As to `CN(C)S(=O)(=O)c1ccc(Oc2cc(CC(=O)O)ccc2Cl)c(Cl)c1` [Example 7, (4-chloro-3-{2-chloro-4-[(dimethylamino)sulfonyl]phenoxy}phenyl)acetic acid], the IC50 was 7.94 nM.

Turning to `CS(=O)(=O)c1ccc(Oc2cc(CC(=O)O)ccc2Cl)c(F)c1` [Example 9, {4-chloro-3-[2-fluoro-4-(methylsulfonyl)phenoxy]phenyl}acetic acid], the IC50 is 14.1 nM.

For `CS(=O)(=O)c1ccc(Oc2cc(CC(=O)O)ccc2Cl)c(C#N)c1` [Example 11, {4-chloro-3-[2-cyano-4-(methylsulfonyl)phenoxy]phenyl}acetic acid], the IC50 is 8.91 nM.
